Laboratory results published in patent publication US20200392158A1, “INHIBITORS OF LEUCINE RICH REPEAT KINASE 2” (GLAXOSMITHKLINE INTELLECTUAL PROPERTY DEVELOPMENT LIMITED, priority 2017, published 2020).

Biological target: T1, full length G2019 human LRRK2 (Homo sapiens, UniProt Q5S007, R50H)
T1 construct: made in house; host or cells: HEK293 6E cells transduced with BacMam virus (virus generated in Sf9 cells)
Test: Full length G2019 human LRRK2 inhibition mass spectrometry assay
Format: biochemical
Settings: LRRKtide to phospho-LRRKtide conversion, RapidFire MS, 2 mM ATP
Summary of the method: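 Inhibition taken as reduced LRRKtide phosphorylation, quantified by RapidFire-coupled triple-quadrupole MS as product/(product+substrate) peak area. Reaction: 2 mM ATP, 25 μM peptide, ~25 nM full-length G2019 Flag-LRRK2, Hepes pH 7.2 buffer, room temperature for 1 h. 11-point 1-in-4 dilutions from 100 μM; logistic fit gives IC50, reported as pIC50.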

T1 sequence (Q5S007 with tags, fused parts or gaps R50H): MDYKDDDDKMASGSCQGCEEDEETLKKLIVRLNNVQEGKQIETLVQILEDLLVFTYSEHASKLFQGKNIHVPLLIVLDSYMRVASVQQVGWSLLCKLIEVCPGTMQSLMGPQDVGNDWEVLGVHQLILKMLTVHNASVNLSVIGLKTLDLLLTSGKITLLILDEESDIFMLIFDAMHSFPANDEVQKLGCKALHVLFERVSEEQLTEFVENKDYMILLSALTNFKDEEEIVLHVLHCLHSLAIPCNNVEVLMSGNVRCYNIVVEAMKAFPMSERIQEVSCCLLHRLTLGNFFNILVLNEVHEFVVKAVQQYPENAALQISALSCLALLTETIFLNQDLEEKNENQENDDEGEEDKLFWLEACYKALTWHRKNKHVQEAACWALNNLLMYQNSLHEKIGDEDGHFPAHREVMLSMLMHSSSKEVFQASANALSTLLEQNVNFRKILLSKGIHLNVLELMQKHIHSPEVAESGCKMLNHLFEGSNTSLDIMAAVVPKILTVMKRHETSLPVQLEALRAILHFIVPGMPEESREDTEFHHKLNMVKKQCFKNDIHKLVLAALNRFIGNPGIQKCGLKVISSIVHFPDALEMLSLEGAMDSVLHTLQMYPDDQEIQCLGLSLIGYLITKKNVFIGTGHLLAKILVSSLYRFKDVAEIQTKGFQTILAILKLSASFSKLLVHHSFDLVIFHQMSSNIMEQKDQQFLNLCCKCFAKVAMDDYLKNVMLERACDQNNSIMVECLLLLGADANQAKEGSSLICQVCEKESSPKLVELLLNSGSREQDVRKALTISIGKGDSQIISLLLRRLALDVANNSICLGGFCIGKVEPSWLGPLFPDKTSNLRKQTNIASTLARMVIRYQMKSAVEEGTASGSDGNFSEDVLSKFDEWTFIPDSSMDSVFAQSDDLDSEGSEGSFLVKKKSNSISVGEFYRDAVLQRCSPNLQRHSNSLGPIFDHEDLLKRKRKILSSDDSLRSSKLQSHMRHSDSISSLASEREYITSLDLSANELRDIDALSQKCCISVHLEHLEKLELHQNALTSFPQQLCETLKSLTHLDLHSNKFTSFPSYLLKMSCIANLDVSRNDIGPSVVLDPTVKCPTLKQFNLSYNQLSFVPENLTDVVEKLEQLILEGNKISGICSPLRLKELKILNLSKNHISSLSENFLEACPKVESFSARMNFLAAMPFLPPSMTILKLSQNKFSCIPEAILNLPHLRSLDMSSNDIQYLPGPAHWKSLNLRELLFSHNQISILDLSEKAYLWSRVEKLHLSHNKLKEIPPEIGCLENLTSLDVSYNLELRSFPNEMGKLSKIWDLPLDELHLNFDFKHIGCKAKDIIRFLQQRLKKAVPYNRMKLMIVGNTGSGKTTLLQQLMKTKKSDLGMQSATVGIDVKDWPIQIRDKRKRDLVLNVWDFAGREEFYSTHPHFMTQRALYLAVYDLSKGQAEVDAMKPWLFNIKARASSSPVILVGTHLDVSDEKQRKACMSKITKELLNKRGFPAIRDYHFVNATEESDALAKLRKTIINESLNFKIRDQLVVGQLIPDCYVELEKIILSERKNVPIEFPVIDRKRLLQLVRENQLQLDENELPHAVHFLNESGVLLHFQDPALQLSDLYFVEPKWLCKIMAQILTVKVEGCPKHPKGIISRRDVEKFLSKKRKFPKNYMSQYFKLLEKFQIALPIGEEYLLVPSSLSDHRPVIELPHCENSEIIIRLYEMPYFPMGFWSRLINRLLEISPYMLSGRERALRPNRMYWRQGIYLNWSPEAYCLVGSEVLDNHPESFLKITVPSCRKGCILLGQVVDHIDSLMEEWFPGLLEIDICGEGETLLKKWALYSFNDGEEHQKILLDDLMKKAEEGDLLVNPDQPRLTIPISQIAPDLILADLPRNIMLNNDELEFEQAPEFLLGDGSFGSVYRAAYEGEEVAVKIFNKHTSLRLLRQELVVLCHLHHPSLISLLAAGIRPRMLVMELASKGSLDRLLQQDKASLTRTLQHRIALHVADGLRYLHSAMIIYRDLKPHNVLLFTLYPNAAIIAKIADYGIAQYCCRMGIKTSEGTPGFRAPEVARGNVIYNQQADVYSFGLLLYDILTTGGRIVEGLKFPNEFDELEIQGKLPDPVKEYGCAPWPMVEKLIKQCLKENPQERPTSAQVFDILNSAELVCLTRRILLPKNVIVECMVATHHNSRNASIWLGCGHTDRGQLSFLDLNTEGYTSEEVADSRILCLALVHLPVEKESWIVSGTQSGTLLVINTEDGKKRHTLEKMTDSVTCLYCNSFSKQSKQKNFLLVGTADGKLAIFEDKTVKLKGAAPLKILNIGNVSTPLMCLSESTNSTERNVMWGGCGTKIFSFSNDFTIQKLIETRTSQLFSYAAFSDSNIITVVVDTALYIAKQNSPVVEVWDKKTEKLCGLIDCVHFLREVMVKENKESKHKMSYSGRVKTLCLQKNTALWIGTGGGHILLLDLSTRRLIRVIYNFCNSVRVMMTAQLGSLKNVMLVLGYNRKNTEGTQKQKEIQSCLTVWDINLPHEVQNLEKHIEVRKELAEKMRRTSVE

SMILES	IC50 [nM]
Cc1c2c(nn1C1CCOCC1)OCC[C@@H](C)Nc1nc(ncc1F)N2 [E295, (11R)-14-Fluoro-4,11-dimethyl-5-(oxan-4-yl)-8-oxa-2,5,6,12,16,17-hexaazatricyclo[11.3.1.0^3,7]heptadeca-1(16),3,6,13(17),14-pentaene]	≤ 100
Cc1c2c(nn1C1COCCC1(F)F)OCC[C@@H](C)Nc1nc(ncc1Cl)N2 (single isomer, unassigned) [E304]	≤ 100
Cc1c2c(nn1C1CCC(N3CCOCC3)C1)OCCCNc1nc(ncc1Cl)N2 (single isomer, unassigned) [E370, 14-Chloro-4-methyl-5-[3-(morpholin-4-yl)cyclopentyl]-8-oxa-2,5,6,12,16,17-hexaazatricyclo[11.3.1.0^3,7] heptadeca-1(16),3,6,13(17),14-pentaene]	≤ 10000
Cc1c2c(nn1C1CCOCC1C)OCCCNc1nc(ncc1Cl)N2 (single isomer, unassigned) [E141, 14-chloro-4-methyl-5-(3-methyloxan-4-yl)-8-oxa-2,5,6,12,16,17-hexaazatricyclo[11.3.1.0^3,7]heptadeca-1(16),3,6,13(17),14-pentaene]	≤ 100
C[C@@H]1CCOc2nn(C3CCN(C4COC4)CC3(F)F)c(Cl)c2Nc2ncc(Cl)c(n2)N1 (single isomer, unassigned) [E445]	≤ 100
Cc1c2c(nn1C1CCOCC1)OCC(C)CNc1nc(ncc1Cl)N2 (single isomer, unassigned) [E137, 14-chloro-4,10-dimethyl-5-(oxan-4-yl)-8-oxa-2,5,6,12,16,17-hexaazatricyclo[11.3.1.0^3,7]heptadeca-1(16),3,6,13(17),14-pentaene]	≤ 100
Cc1c2c(nn1CC(C)(C)O)OCCCNc1nc(ncc1Cl)N2 [E263, 1-{14-Chloro-4-methyl-8-oxa-2,5,6,12,16,17-hexaazatricyclo [11.3.1.0^3,7]heptadeca-1(16),3,6,13(17),14-pentaen-5-yl}-2-methylpropan-2-ol]	≤ 10000
Cc1c2c(nn1C1CCOCC1(C)C)OCC[C@@H](C)Nc1nc(ncc1Cl)N2 (single isomer, unassigned) [E423]	≤ 100
Cc1c2c(nn1C1CCN(C3COC3)CC1F)OCCCNc1nc(ncc1Cl)N2 (single isomer, unassigned) [E62, trans-14-chloro-5-[3-fluoro-1-(oxetan-3-yl)piperidin-4-yl]-4-methyl-8-oxa-2,5,6,12,16,17-hexaazatricyclo[11.3.1.0^3,7]heptadeca-1(16),3,6,13(17),14-pentaene]	≤ 100
Cc1c2c(nn1C1(C(F)(F)F)CCOCC1)OCC[C@@H](C)Nc1nc(ncc1Cl)N2 [E419, (11R)-14-Chloro-4,11-dimethyl-5-[4-(trifluoromethyl)oxan-4-yl]-8-oxa-2,5,6,12,16,17-hexaazatricyclo[11.3.1.0^3,7]heptadeca-1(16),3,6,13(17),14-pentaene]	≤ 100
Cc1c2c(nn1C1CCOC(C)C1)OCCC(C)Nc1nc(ncc1Cl)N2 (single isomer, unassigned) [E84, 14-chloro-4,11-dimethyl-5-(2-methyloxan-4-yl)-8-oxa-2,5,6,12, 16,17-hexaazatricyclo[11.3.1.0^3,7]heptadeca-1(16),3,6,13(17),14-pentaene]	≤ 100
Cc1c2c(nn1C1CCOCC1)OCC[C@H](C)Nc1nc(ncc1Cl)N2 [E7, (11S)-14-Chloro-4,11-dimethyl-5-(oxan-4-yl)-8-oxa-2,5,6,12,16,17-hexaazatricyclo [11.3.1.0^3,7]heptadeca-1(16),3,6,13(17),14-pentaene]	≤ 10000
Cc1c2c(nn1C1COCCC1(F)F)OCCCNc1nc(ncc1Cl)N2 (single isomer, unassigned) [E303, 14-Chloro-5-(4,4-difluorooxan-3-yl)-4-methyl-8-oxa-2,5,6,12,16,17-hexaazatricyclo[11.3.1.0^3,7]heptadeca-1(16),3,6,13(17),14-pentaene]	≤ 10000
Cc1c2c(nn1C(C)(C)C(N)=O)OCCCNc1nc(ncc1Cl)N2 [E190, 2-{14-Chloro-4-methyl-8-oxa-2,5,6,12,16,17-hexaazatricyclo [11.3.1.0^3,7]heptadeca-1(16),3,6,13(17),14-pentaen-5-yl}-2-methylpropanamide]	≤ 10000
Cc1c2c(nn1C1CCOCC1)OCCC(C)Nc1nc(ncc1C(F)(F)F)N2 (single isomer, unassigned) [E290, 4,11-Dimethyl-5-(oxan-4-yl)-14-(trifluoromethyl) -8-oxa-2,5,6,12,16,17-hexaazatricyclo[11.3.1.0^3,7]heptadeca-1(16),3,6,13(17),14-pentaene]	≤ 10000
Cc1c2c(nn1C1CCOCC1)OCC(C)C(C)Nc1nc(ncc1Cl)N2 (single isomer, unassigned) [E31, 14-chloro-4,10,11-trimethyl-5-(oxan-4-yl)-8-oxa-2,5,6,12,16,17-hexaazatricyclo [11.3.1.0^3,7]heptadeca-1(16),3,6,13(17),14-pentaene]	≤ 100
Cc1c2c(nn1CCN1C[C@H]3C[C@@H]1CO3)OCCC(C)Nc1nc(ncc1Cl)N2 (single isomer, unassigned) [E210]	≤ 100
COC1CNc2nc(ncc2C(F)(F)F)Nc2c(nn(C3CCCOC3)c2C)OC1 (single isomer, unassigned) [E228, 10-Methoxy-4-methyl-5-(oxan-3-yl)-14-(trifluoromethyl)-8-oxa-2,5,6,12,16,17-hexaazatricyclo [11.3.1.0^3,7] heptadeca-1(17),3,6,13,15-pentaene]	≤ 10000
COC1CNc2nc(ncc2Cl)Nc2c(nn(C3COC3)c2C)OC1 (single isomer, unassigned) [E271, 14-Chloro-10-methoxy-4-methyl-5-(oxetan-3-yl)-8-oxa-2,5,6,12,16,17-hexaazatricyclo[11.3.1.0^3,7]heptadeca-1(16),3,6,13(17),14-pentaene]	≤ 10000
COC1CNc2nc(ncc2Cl)Nc2c(nn(CC3(C)COC3)c2C)OC1 (single isomer, unassigned) [E272, 14-Chloro-10-methoxy-4-methyl-5-[(3-methyloxetan-3-yl)methyl]-8-oxa-2,5,6,12,16,17-hexaazatricyclo [11.3.1.0^3,7]heptadeca-1(16),3,6,13(17),14-pentaene]	≤ 100
Cc1c2c(nn1C1CC(C)OC(C)C1)OCCCNc1nc(ncc1Cl)N2 (single isomer, unassigned) [E201, 14-Chloro-5-(2,6-dimethyloxan-4-yl)-4-methyl-8-oxa-2,5,6,12,16,17-hexaazatricyclo[11.3.1.0^3,7]heptadeca-1(16),3,6,13(17),14-pentaene]	≤ 100
Cc1c2c(nn1C(C)(C)C#N)OCCC(C)Nc1nc(ncc1Cl)N2 (single isomer, unassigned) [E43, 2-{14-chloro-4,11-dimethyl-8-oxa-2,5,6,12,16,17-hexaazatricyclo [11.3.1.0^3,7]heptadeca-1(16),3,6,13(17),14-pentaen-5-yl}-2-methylpropanenitrile]	≤ 10000
COC1CNc2nc(ncc2Cl)Nc2c(nn(C3CC(C)OC(C)C3)c2C)OC1 (single isomer, unassigned) [E199, 14-Chloro-5-(2,6-dimethyloxan-4-yl)-10-methoxy-4-methyl-8-oxa-2,5,6,12,16,17-hexaazatricyclo[11.3.1.0^3,7] heptadeca-1(16),3,6,13(17),14-pentaene]	≤ 10000
